From patent US20260216197A1, “WRN HELICASE INHIBITOR” (SUZHOU PUHE BIOPHARMA CO., LTD., priority 2022, published 2026)

Molecular target: WRN helicase (Homo sapiens, UniProt Q14191)
Assay: WRN helicase hydrolysis/unwinding of double-stranded DNA (fluorescence)
Type: biochemical
How it was run: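 Human WRN helicase preincubated 30 min in the dark with compound (top final concentration 10 μM, 4-fold dilutions). Reaction started with 19-bp double-stranded DNA labelled 3′-TAMRA/5′-BHQ2, run 60 min at room temperature; IC50 from fluorescence change (Ex530/Em590) versus DMSO blank.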

Chain of WRN helicase (Q14191 whole entry): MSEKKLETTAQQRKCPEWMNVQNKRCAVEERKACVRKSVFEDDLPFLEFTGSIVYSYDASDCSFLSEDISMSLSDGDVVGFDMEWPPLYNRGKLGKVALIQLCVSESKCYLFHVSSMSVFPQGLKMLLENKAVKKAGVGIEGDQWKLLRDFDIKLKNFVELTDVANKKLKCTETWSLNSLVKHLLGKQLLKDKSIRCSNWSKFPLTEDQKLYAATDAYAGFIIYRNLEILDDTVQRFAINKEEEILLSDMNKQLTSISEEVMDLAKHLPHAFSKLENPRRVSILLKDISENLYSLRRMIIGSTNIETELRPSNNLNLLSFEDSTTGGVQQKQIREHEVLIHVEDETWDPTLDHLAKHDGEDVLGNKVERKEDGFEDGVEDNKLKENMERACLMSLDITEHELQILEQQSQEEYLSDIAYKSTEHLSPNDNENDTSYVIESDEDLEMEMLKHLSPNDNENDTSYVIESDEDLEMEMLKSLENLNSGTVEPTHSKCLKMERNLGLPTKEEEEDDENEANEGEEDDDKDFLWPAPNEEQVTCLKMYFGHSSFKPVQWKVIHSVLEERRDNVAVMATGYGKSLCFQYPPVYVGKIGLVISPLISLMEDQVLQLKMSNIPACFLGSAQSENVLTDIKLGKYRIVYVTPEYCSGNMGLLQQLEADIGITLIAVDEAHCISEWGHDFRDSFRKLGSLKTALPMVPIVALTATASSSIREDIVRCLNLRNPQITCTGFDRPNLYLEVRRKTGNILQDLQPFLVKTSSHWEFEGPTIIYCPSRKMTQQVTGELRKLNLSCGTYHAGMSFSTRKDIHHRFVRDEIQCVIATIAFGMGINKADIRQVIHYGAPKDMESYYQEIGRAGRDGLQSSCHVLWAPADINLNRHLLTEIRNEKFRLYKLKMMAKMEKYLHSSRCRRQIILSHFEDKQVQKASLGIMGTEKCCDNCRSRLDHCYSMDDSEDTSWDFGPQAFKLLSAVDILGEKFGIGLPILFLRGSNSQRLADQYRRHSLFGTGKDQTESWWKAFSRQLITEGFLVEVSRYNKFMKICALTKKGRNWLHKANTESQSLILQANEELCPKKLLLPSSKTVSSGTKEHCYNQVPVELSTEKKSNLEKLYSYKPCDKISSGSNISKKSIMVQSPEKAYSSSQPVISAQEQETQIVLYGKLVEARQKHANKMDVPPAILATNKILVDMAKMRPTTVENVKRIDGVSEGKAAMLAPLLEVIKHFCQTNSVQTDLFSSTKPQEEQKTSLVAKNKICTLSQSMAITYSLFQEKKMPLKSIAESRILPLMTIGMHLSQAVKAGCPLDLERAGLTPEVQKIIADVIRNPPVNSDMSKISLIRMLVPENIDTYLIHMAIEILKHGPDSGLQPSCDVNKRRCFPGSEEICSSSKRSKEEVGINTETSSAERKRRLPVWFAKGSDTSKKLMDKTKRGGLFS

- IC50: 1.4 nM
SMILES: CCc1c(N2CCN(C(=O)c3ncnc(C)c3O)CC2)c(=O)n2nc(C3=CCOCC3)nc2n1CC(=O)Nc1ccc(C(F)(F)F)c2ccoc12 [Compound H22]
